The record followed here is ChEMBL document CHEMBL5465560, “Selectivity Literature for EUbOPEN Chemogenomic Library” (2024).

Experiment [1] deals with Non-receptor tyrosine-protein kinase TYK2 (Homo sapiens, UniProt P29597). The experiment is described as follows: Selectivity interaction (Kinase panel (Z-LYTE Assay)) EUB0001632a TYK2. The conditions noted are these: at 10 µM.
Experiment [2] has as its target Glutamate receptor ionotropic, NMDA 1 (Homo sapiens) (UniProt Q05586). The experiment is described as follows: Selectivity interaction (Panel of non-epigenetic targets (kinases, GPCRs, ion channels, and transporters, Eurofins) ) EUB0000271b GRIN1. The conditions noted are these: at 1 µM.
For experiment [3], the target named is Activin receptor type-1-like (Homo sapiens) (UniProt P37023). Kind of experiment: Selectivity interaction (KinomeScan (DiscoverX)) EUB0000666a ACVRL1. As to conditions: at 10 µM.
For experiment [4], the target named is Ephrin type-A receptor 2 (Homo sapiens) (UniProt P29317). The experiment is described as follows: Selectivity interaction (Kinase panel (DSF assay)) EUB0001558a EPHA2. Background: DSF heats the sample and reads unfolding from a dye or from intrinsic fluorescence.
Experiment [5] has as its target Casein kinase I isoform gamma-2 (Homo sapiens) (UniProt P78368). Kind of experiment: Selectivity interaction (KinomeScan (DiscoverX)) EUB0001079a CSNK1G2. As to conditions: at 1 µM.
Experiment [6] concerns the target T1, Rhodopsin kinase GRK7 (Homo sapiens) (UniProt Q8WTQ7).
T1 sequence (whole entry): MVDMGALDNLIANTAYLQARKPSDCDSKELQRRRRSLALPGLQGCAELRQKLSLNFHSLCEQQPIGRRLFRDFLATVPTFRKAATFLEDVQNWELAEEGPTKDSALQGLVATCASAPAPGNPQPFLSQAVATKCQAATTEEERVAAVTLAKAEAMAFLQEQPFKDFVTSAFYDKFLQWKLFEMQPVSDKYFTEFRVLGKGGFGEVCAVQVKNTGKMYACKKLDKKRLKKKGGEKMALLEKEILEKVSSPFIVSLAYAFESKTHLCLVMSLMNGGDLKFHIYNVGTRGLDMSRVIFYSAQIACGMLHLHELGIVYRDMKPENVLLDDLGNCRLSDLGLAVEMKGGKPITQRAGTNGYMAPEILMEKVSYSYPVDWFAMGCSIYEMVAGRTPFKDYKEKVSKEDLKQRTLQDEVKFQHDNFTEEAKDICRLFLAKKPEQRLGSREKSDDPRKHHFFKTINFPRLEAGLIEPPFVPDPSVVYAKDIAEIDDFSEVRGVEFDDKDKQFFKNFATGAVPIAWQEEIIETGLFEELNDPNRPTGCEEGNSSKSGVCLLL
The experiment is described as follows: Selectivity interaction (KinomeScan (DiscoverX)) EUB0001619a GRK7. As to conditions: at 1 µM.

For experiment [7], the target named is Phosphatidylinositol 4-kinase alpha (Homo sapiens, UniProt P42356). Kind of experiment: Selectivity interaction (ActivX KiNativ screen (kinase selectivity in THP-1 cell lysates)) EUB0000639a PI4KA. As to conditions: lysate. The experiment is classed as subcellular.
The target of experiment [8] is Phosphatidylinositol 4-kinase type 2-beta (Homo sapiens) (UniProt Q8TCG2). The experiment is described as follows: Selectivity interaction (ActivX KiNativ screen (kinase selectivity in THP-1 cell lysates)) EUB0000639a PI4K2B. Format: subcellular. As to conditions: lysate.
The subject of experiment [9] is Tyrosine-protein kinase ABL1 (Homo sapiens), P00519 [H396P]. The experiment is described as follows: (§1) Selectivity interaction (KinomeScan (DiscoverX)) EUB0001049a ABL1. As to conditions: at 1 µM.
Experiment [10] has as its system Tyrosine-protein kinase ABL1 (Homo sapiens), P00519 [E255K]. The description is as §1. As to conditions: at 1 µM.
In experiment [11] the test system is Tyrosine-protein kinase ABL1 (Homo sapiens), P00519 [F317I]. The experiment is described as §1. As to conditions: at 1 µM.
For experiment [12], the target named is Tyrosine-protein kinase ABL1 (Homo sapiens, UniProt P00519). The description is as §1. As to conditions: at 1 µM.
The subject of experiment [13] is Tyrosine-protein kinase ABL1 (Homo sapiens), P00519 [F317L]. The experiment is described as §1. As to conditions: at 1 µM.
Experiment [14] concerns Tyrosine-protein kinase ABL1 (Homo sapiens), P00519 [Y253F]. The experiment is described as §1. The conditions noted are these: at 1 µM.
The test system of experiment [15] is Tyrosine-protein kinase ABL1 (Homo sapiens), P00519 [Q252H]. Described as §1. As to conditions: at 1 µM.
The subject of experiment [16] is Tyrosine-protein kinase ABL1 (Homo sapiens), P00519 [M351T]. The description is as §1. The conditions noted are these: at 1 µM.
The target of experiment [17] is Serine/threonine-protein kinase Nek7 (Homo sapiens) (UniProt Q8TDX7). Kind of experiment: Selectivity interaction (KinomeScan (DiscoverX)) EUB0001049a NEK7. The conditions noted are these: at 1 µM.
The target of experiment [18] is Insulin-like growth factor 1 receptor (Homo sapiens, UniProt P08069). Kind of experiment: Selectivity interaction (ProQinase) EUB0000171b IGF1R.
For experiment [19], the target named is Cyclin-dependent kinase 5 (Homo sapiens, UniProt Q00535). Kind of experiment: Selectivity interaction (KinomeScan (DiscoverX)) EUB0000092b CDK5. The conditions noted are these: at 10 µM.
In experiment [20] the target is Casein kinase I isoform gamma-1 (Homo sapiens) (UniProt Q9HCP0). Kind of experiment: Selectivity interaction (KinomeScan (DiscoverX)) EUB0000045b CSNK1G1.
For experiment [21], the target named is T2, Mitogen-activated protein kinase kinase kinase 13 (Homo sapiens) (UniProt O43283).
T2 sequence (whole entry): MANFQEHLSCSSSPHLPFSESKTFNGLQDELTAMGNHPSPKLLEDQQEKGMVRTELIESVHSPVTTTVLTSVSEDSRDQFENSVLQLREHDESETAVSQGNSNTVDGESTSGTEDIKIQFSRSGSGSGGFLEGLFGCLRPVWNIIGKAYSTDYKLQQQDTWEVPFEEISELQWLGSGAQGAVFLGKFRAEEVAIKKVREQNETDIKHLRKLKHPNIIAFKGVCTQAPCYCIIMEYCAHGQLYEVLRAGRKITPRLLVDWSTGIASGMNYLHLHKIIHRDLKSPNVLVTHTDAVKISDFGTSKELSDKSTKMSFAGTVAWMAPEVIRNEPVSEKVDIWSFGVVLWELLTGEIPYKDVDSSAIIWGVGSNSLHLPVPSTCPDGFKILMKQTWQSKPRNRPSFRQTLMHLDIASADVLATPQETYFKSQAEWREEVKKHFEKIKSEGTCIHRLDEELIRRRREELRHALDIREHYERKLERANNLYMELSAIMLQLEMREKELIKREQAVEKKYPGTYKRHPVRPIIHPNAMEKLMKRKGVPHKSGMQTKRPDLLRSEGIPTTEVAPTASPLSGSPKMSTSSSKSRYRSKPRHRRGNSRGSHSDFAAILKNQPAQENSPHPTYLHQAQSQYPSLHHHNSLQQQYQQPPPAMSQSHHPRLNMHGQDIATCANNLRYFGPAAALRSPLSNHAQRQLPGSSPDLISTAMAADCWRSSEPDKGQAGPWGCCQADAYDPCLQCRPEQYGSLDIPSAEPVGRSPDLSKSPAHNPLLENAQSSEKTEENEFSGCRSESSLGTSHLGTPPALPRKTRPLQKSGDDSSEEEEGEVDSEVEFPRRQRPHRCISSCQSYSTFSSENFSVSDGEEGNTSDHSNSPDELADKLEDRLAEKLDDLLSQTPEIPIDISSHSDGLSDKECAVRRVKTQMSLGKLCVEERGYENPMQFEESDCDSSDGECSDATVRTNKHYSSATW
Kind of experiment: Selectivity interaction (KinomeScan (DiscoverX)) EUB0000618a MAP3K13. As to conditions: at 10 µM.

Phosphatidylinositol 4-kinase alpha, sequence (P42356 whole entry, looked up): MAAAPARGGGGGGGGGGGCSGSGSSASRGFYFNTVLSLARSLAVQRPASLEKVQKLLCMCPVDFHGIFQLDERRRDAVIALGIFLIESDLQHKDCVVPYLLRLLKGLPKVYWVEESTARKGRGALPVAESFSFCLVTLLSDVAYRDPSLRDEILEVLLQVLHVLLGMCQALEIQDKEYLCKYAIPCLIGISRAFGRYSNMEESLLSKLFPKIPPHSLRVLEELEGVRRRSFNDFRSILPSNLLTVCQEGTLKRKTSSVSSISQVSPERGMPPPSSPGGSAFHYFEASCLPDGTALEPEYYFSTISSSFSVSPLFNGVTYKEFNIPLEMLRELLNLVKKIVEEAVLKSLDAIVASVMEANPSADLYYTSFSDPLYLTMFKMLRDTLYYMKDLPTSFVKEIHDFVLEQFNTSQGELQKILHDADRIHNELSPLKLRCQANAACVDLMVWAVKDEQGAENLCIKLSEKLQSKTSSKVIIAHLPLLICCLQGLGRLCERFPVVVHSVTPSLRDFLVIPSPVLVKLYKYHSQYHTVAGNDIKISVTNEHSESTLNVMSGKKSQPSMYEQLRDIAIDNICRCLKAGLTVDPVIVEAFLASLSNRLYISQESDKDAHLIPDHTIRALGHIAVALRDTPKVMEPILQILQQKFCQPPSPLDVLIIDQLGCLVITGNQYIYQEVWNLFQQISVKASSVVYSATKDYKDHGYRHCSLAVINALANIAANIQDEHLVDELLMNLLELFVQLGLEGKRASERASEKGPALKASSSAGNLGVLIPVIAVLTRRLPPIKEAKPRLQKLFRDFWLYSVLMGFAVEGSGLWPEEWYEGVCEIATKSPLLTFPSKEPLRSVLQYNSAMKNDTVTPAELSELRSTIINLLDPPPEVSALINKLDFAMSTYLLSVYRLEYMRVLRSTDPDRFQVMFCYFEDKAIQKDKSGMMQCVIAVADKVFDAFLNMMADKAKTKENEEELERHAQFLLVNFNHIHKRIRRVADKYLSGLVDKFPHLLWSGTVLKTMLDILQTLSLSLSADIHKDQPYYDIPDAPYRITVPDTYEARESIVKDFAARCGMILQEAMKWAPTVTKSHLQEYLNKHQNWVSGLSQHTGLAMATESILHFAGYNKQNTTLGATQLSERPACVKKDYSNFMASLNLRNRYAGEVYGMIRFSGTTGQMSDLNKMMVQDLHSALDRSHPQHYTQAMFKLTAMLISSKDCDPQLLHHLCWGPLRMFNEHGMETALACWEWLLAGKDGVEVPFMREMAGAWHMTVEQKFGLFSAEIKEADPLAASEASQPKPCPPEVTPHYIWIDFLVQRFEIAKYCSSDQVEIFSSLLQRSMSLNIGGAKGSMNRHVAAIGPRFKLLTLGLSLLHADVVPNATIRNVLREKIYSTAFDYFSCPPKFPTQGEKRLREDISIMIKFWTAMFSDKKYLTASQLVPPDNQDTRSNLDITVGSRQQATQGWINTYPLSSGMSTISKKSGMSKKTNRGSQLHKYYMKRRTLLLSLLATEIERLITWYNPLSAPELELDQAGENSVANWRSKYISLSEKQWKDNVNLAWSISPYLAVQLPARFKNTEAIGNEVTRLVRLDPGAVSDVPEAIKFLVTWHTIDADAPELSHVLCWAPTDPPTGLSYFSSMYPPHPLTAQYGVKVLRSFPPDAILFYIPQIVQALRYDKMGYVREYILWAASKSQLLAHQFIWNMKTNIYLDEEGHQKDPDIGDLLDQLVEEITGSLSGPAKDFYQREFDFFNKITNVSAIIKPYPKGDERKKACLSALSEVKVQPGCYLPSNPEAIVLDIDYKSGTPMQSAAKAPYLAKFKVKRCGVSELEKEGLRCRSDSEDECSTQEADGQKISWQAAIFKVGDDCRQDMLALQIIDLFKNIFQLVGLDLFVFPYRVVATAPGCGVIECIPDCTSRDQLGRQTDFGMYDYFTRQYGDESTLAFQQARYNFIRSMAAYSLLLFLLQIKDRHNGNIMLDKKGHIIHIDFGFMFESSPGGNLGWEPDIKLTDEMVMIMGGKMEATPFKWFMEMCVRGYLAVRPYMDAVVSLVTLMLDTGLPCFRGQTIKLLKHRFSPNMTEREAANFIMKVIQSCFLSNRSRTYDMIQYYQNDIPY
Phosphatidylinositol 4-kinase type 2-beta (Homo sapiens), sequence (Q8TCG2 whole entry): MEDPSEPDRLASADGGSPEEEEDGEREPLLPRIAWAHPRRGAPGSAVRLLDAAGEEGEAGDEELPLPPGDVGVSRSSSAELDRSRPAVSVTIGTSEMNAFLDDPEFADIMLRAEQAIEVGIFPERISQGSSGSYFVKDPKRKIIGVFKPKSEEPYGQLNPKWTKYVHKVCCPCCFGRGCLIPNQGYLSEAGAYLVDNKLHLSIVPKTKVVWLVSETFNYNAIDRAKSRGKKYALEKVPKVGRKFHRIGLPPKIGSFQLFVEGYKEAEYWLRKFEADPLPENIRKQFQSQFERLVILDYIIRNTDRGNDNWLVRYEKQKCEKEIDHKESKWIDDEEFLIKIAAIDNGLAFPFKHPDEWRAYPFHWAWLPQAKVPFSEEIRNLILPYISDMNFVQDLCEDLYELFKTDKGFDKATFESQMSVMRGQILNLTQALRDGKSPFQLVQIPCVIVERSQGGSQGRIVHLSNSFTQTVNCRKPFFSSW
Casein kinase I isoform gamma-1 (Homo sapiens), sequence (Q9HCP0 whole entry, looked up, canonical isoform): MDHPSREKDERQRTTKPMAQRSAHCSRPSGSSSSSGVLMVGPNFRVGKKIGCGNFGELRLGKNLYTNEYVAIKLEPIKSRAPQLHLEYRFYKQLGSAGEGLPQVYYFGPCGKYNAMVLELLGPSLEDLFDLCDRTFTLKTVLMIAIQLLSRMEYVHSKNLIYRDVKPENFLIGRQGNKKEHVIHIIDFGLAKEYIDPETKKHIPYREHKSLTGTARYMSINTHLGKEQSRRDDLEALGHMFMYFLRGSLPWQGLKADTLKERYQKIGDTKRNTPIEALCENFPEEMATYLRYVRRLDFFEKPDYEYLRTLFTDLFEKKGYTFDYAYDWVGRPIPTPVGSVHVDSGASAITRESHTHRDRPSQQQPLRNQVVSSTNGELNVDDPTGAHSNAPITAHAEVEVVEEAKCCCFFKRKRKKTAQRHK
Insulin-like growth factor 1 receptor, sequence (P08069 31-736 limits assumed): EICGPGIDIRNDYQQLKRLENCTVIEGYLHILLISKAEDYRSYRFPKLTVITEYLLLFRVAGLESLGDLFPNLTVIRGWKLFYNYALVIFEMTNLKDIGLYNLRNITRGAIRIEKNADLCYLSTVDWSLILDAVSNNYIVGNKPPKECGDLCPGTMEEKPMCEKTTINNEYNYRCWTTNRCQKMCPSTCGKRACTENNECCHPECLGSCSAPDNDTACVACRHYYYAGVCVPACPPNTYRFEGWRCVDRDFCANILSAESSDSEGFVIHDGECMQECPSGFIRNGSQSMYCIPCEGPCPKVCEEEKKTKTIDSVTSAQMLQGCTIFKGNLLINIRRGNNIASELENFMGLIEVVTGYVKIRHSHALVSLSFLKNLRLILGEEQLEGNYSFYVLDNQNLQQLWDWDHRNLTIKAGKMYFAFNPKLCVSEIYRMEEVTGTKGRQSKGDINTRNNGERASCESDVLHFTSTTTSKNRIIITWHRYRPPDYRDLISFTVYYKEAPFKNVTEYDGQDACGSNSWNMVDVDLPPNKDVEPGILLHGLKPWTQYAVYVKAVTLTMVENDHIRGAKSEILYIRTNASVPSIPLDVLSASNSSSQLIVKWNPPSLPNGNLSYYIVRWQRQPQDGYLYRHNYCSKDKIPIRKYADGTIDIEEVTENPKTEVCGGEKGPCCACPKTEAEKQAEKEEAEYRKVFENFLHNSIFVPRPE
Insulin-like growth factor 1 receptor, sequence (P08069 741-1367 limits assumed): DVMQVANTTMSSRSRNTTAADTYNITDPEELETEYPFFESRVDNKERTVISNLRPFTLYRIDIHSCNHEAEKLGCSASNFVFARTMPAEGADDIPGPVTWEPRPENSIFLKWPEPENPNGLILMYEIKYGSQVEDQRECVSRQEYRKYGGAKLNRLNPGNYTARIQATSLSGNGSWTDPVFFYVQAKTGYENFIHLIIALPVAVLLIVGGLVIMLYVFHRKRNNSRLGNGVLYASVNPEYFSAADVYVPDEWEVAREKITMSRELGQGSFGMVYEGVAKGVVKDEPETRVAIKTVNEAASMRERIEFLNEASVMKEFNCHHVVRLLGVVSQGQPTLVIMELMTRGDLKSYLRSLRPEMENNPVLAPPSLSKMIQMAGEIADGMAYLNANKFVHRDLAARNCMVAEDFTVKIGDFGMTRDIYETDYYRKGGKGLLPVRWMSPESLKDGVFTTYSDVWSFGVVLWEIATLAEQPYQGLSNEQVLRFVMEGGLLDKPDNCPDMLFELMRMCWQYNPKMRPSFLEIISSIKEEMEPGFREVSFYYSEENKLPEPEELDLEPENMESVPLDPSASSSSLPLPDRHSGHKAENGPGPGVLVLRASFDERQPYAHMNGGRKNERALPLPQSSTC
Serine/threonine-protein kinase Nek7 (Homo sapiens), sequence (Q8TDX7 whole entry, looked up): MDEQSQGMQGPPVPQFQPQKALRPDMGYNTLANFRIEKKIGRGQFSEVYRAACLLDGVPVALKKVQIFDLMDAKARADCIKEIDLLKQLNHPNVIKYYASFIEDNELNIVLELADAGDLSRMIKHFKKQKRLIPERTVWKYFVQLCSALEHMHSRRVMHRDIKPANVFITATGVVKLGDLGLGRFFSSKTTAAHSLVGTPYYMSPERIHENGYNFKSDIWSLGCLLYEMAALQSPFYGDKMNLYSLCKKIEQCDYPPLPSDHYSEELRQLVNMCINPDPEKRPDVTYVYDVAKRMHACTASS
Cyclin-dependent kinase 5, sequence (Q00535 whole entry, looked up, canonical isoform): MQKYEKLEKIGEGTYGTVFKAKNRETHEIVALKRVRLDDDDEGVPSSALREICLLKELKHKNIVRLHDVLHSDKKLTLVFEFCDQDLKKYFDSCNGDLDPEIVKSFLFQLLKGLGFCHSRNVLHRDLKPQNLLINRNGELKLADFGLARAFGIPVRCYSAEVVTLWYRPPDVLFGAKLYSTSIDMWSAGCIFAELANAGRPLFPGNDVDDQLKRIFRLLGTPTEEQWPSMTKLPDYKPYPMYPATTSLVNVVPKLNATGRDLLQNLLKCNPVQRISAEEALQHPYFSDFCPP

Regarding `Cn1cc(-n2cnc3c(NCc4nc5cc(Cl)c(Cl)cc5[nH]4)nc(N4CCOCC4)nc32)cn1`, the % of control in experiment [1] stood at 2.01%.

Regarding `Cc1cc(C)cc([C@@H]2c3cc(C)ccc3NC(=O)CN2C(=O)c2ccc(Br)s2)c1`, the % of inhibition in experiment [2] is 1%.

In turn, `O=C(NOC[C@H](O)CO)c1ccc(F)c(F)c1Nc1ccc(I)cc1F` had a % of control in experiment [3] of 100%.

Consider `CC(C)(O)[C@H](F)CN1Cc2cc(NC(=O)c3cnn4cccnc34)c(N3CCOCC3)cc2C1=O`, for which the dTM in experiment [4] worked out at 3.4 K.

In experiment [5], `Nc1cnc(N2CCc3cc(S(=O)(=O)Nc4c(F)cc(Cl)cc4F)cc(N4CCCC4=O)c32)nc1` [TP-020n] came in with a % of control of 88%.

Turning to `N#Cc1cccc(-c2c[nH]c3ncnc(N4CCOCC4)c23)c1`, the % of control in experiment [6] was determined as 37%.

Consider `CC[C@@H]1[C@H](F)C(=O)N[C@@H]1COc1nccc2cc(C(N)=O)c(OC)cc12` [ZIMLOVISERTIB], for which the % of inhibition in experiment [7] (at 0.01 µM) is 7.2%; in [7] (at 0.04 µM) it was -7.1%; in [7] (at 0.2 µM) it was -24.4%; in [7] (at 1 µM), -6%; in experiment [7] (at 5 µM) it was 38.5%; in experiment [8] (at 0.01 µM) it was 13.9%. Also, the % of inhibition is -2.8% in experiment [8] (at 0.04 µM), -47.4% in experiment [8] (at 0.2 µM), -23.2% in [8] (at 1 µM) and -24% in experiment [8] (at 5 µM).

For the compound `COc1cc(Nc2nc(C)cc(-c3cnn4nc(OC)ccc34)n2)cc(C(F)(F)F)c1`, the % of control in experiment [9] was 64%; in [10] it was 86%; in experiment [11], 97%; in experiment [12], 63%; in experiment [13], 92%; in experiment [14] it was 70%. The % of control was determined as 68% in experiment [15], 99% in experiment [16] and 83% in [17].

Consider `C=CC(=O)Nc1cccc(C(=O)Nc2ccc(Nc3cc(-c4[nH]c(SC)nc4C)ccn3)cc2)c1`, for which the % of control came out at 92% in experiment [18] (at 1 µM) and 86% in experiment [18] (at 5 µM).

In the case of `CCC(=O)N1CCN(c2ccc(-n3c(=O)ccc4cnc5ccc(-c6cnc7ccccc7c6)cc5c43)cc2C(F)(F)F)CC1`, in experiment [19], the % of control amounted to 100%.

With `C=CC(=O)Nc1cc(-n2c(=O)ccc3cnc4ccc(-c5ccc(NS(C)(=O)=O)cc5)cc4c32)ccc1C`, the % of control in experiment [20] (at 1 µM) came to 100%; in [20] (at 10 µM), 75%.

As for `O[C@H]1CC[C@H](Nc2ncc3nc(Nc4c(F)cc(F)cc4F)n([C@H]4CCOC4)c3n2)CC1`, the % of control in experiment [21] was 100%.
